Experimental data reported in EP0536424A1, “NOVEL BENZOPYRAN DERIVATIVE” (Japan Tobacco Inc., priority 1991, dated 1992).
Where two headings read alike, the source gives them in different places.

Key:
[1] = system: aorta thoracica of a male Wister rat; assay: Blood vessel relaxing action (relaxation of phenylephrine-contracted, endothelium-denuded spiral strip); details: concentration inhibiting 50% of the contraction achieved by phenylephrine (10⁻⁶ M), compound 10⁻⁸ to 10⁻⁵ M added cumulatively, 37°C, read-out: IC₅₀
Experimental: Preparation of the extracted blood vessel sample and the experiment were conducted by the methods of Toda et al. described in J. Cardiovasc. Pharmacol., 7,1118 (1985). The aorta thoracica of a male Wister rat was used as a sample. To be more specific, a spiral piece was prepared by peeling endothelium about 1 cm long from the artery to provide the sample. The endothelium was peeled off by rubbing with a swab. A Krebs-Hensterite solution of 37°C saturated with 95% O₂ and 5% CO₂ was used as a nutrient solution. After application of 1g as suspending load to the sample, changes in tension were measured by rectigraph via an isometric transducer. After the aorta thoracica was contracted by phenylephrine (10⁻⁶ M), a compound to be examined (an example compound) of 10⁻⁸ to 10⁻⁵ M was cumulatively added to determine the relaxing action of the compound quantitatively. The relaxing effect of the example compound was determined in terms of the concentration IC₅₀ of the compound required for inhibiting 50% of the contraction achieved by phenylephrine (10⁻⁶ M). Lema Kalin was used as reference compound A. On the other hand, reference compound B was provided by N'-cyano-N-(trans-6-cyano-3,4-dihydro-2,2-dimethyl-3-hydroxy-2H-1-benzopyran-4-yl)-benzamidine. […]

coronary blood flow rate = assay: Action on the coronary blood flow rate in dog (anesthetized, left coronary artery perfused with femoral arterial blood); type: in vivo; details: administered into the coronary artery; for ED 50: dose increasing coronary blood flow rate by 50% of the reaction caused by niphedipine 1 µg (set at 100%); for Durationng: time during which the compound produced at least 50% of its efficacy at the ED₅₀ dosage
Experimental: Dogs with ether sex were anesthetized with pentobarbital (30 mg/kg,intravenous administration), followed by intravenous heparin administration (500 U/kg) to the dogs under artificial respiration. Then, according to Yago's method described in Folia pharmacol. japon., 57,380 (1961), the left coronary artery was perfused with the right femoral arterial blood so as to measure the blood perfusion amount with an electromagnetic blood flow meter. The example compound was administered into the coronary artery by using a micro syringe just before a stainless steel cannula inserted into the coronary artery. The increase in the coronary blood flow rate caused by the example compound was determined by standardizing the reactivity among the specimen subject, with the reaction caused by the niphedipine administration (1 µg) into the coronary artery of the specimen subject being set at 100%. To be more specific, the intensity of the action due to the example compound was determined in terms of ED₅₀ required for increasing the coronary blood flow rate by 50% on the basis of the reaction caused by niphedipine administered into the coronary artery in an amount of 1 µg. Further, the duration of the effect produced by the example compound was determined in terms of the time (minutes) during which the compound produced at least 50% of efficacy on the basis that the efficacy of the compound in the ED₅₀ dosage noted above was set at 100%. […]

SMILES	IC50 ([1]; Rattus norvegicus)	IC50 [1]	ED 50 (coronary blood flow rate)	Durationng (coronary blood flow rate)
CC1(C)Oc2ccc(C#N)cc2[C@@H](NC(=NC#N)c2ccc(F)cc2)[C@@H]1O (relative stereo) [Example 16, N'-cyano-N-(trans-6-cyano-3,4-dihydro-2,2-dimethyl-3-hydroxy-2H-1-benzopyran-4-yl)-4-fluorobenzamidine]	0.06 µM	–	1.5 µg	2.5 minuted
CC1(C)Oc2ccc(C#N)cc2[C@@H](NC(=NC#N)c2ccccc2)[C@@H]1O (relative stereo) [Reference Compound B, N'-cyano-N-(trans-6-cyano-3,4-dihydro-2,2-dimethyl-3-hydroxy-2H-1-benzopyran-4-yl)-benzamidine, reference compound]	1 µM	–	4.2 µg	1.9 minuted
CC1(C)Oc2ccc(C#N)cc2[C@@H](N2CCCC2=O)[C@@H]1O [Reference Compound A, Lema Kalin, reference compound]	–	0.4 µM	1.1 µg	2.5 minuted

Now from value to compound, other results behind:

IC50 ([1]; Rattus norvegicus)	IC50 [1]	SMILES	ED 50 (coronary blood flow rate)	Durationng (coronary blood flow rate)
0.6 µM	–	CC1(C)Oc2ccc(C#N)cc2[C@@H](NC(=NC#N)c2cccnc2)[C@@H]1O (relative stereo) [Example 3, N'-cyano-N-(trans-6-cyano-3,4-dihydro-2,2-dimethyl-3-hydroxy-2H-1benzopyran-4-yl]-3-pyridinecarboxamidine]	1.9 µg	4.0 minuted
1 µM	–	CC1(C)Oc2ccc(C#N)cc2[C@@H](NC(=N[N+](=O)[O-])c2ccccn2)[C@@H]1O (relative stereo) [Example 14, N-(trans-6-cyano-3,4-dihydro-2,2-dimethyl-3-hydroxy-2H-1-benzopyran-4yl)-N'-nitro-2-pyridinecarboxamidine]	–	–
